Test results published in ChEMBL document CHEMBL5034039, “Discovery of Novel, Orally Bioavailable Pyrimidine Ether-Based Inhibitors of ELOVL1” (J Med Chem, 2021).
Each block holds one compound with its values, some of them ahead of it. Activity calls are given as the source filed them. The rule behind the calls is not given here.

Experiments:
[1] = molecular target: T1, Very long chain fatty acid elongase 6 (Homo sapiens) (UniProt Q9H5J4); assay: Inhibition of ELOVL6 in HEK293 cells assessed as reduction of C16:0 lipo phosphatidyl choline synthesis at 100 nM in presence of 13C-labeled acetate measured after 48 hrs by mass spectroscopic analysis; assay type: cell-based
T1 sequence (whole entry): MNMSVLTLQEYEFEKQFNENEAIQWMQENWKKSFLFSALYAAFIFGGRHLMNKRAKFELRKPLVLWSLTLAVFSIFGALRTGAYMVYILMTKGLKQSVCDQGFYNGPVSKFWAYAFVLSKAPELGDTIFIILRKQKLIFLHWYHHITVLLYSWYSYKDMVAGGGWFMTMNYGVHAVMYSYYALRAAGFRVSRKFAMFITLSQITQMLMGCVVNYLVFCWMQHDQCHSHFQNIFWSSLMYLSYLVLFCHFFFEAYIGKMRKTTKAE

[2] = Reduction in C26:0 LPC level in wild type mouse blood at 4 mg/kg, po qd and measured after 1 week relative to control; assay type: functional; parameters: scale not given: the % may be the effect or the level left; conditions: time 1 weeks
[3] = Clearance in rat at 1 mg/kg, iv; assay type: ADME, organism-based; conditions: in vivo
[4] = tested on: Mus musculus; assay: Reduction in C26:0/C16:0 LPC level in ABCD1 knock out mouse blood at 1 to 32 mg/kg, po qd and measured after 1 week; assay type: functional, organism-based; conditions: dose 1-32 mg/kg, time 1.0 weeks
[5] = tested on: MDR1; assay: Efflux ratio of permeability in dog MDCK-MDR1 cells; assay type: ADME, cell-based, Canis lupus familiaris
[6] = tested on: Cynomolgus monkey; assay: Reduction in C26:0/C16:0 LPC level in wild type Cynomolgus monkey blood at 50 mg/kg, po qd measured after 14 days relative to control; assay type: functional, Macaca fascicularis; parameters: scale not given: the % may be the effect or the level left; conditions: time 14 day
[7] = Inhibition of ELOVL7 in HEK293 cells by radiometric enzyme assay; assay type: cell-based, Homo sapiens
[8] = molecular target: Voltage-gated inwardly rectifying potassium channel KCNH2 (Homo sapiens, UniProt Q12809); assay: Inhibition of human ERG
[9] = Reduction in C26:0/C16:0 LPC level in ABCD1 knock out mouse CNS at 32 mg/kg, po qd and measured after 3 months relative to control; assay type: functional; parameters: scale not given: the % may be the effect or the level left; conditions: 2190 h
[10] = molecular target: T2, Very long chain fatty acid elongase 1 (Homo sapiens) (UniProt Q9BW60); assay: Inhibition of ELOVL1 in HEK293 cells assessed as reduction of C24:0 lipo phosphatidyl choline synthesis at 100 nM in presence of 13C-labeled acetate measured after 48 hrs by mass spectroscopic analysis; assay type: cell-based
T2 sequence (whole entry): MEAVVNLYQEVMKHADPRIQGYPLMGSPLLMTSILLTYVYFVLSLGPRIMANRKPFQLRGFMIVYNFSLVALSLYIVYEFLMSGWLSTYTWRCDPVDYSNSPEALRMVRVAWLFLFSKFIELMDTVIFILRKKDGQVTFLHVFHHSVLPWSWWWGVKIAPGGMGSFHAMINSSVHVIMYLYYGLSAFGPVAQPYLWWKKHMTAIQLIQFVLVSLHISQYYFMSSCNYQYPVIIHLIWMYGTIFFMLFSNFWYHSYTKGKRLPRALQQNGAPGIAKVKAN

[11] = molecular target: T2, Very long chain fatty acid elongase 1 (Homo sapiens); assay: Inhibition of ELOVL1 in HEK293 cells assessed as increase in C20:0 lipo phosphatidyl choline synthesis at 100 nM in presence of 13C-labeled acetate measured after 48 hrs by mass spectroscopic analysis; assay type: cell-based
[12] = molecular target: T3, Very long chain fatty acid elongase 1 (Homo sapiens, UniProt Q9BW60); assay: Inhibition of ELOVL1 in HEK293 cells assessed as reduction of C26:0 lipo phosphatidyl choline synthesis; assay type: cell-based
T3 sequence (Q9BW60 whole entry): T2 sequence (whole entry)

[13] = Half life in rat at 1 mg/kg, iv; assay type: ADME, organism-based; conditions: in vivo
[14] = Oral bioavailability in rat at 3 mg/kg; assay type: ADME, organism-based; conditions: in vivo
[15] = Reduction in C26:0/C16:0 LPC level in ABCD1 knock out mouse blood at >=8 mg/kg, po qd and measured after 1 week relative to control; assay type: functional; parameters: scale not given: the % may be the effect or the level left; conditions: dose mg/kg >=8; time 1 weeks
[16] = tested on: Cynomolgus monkey; assay: Reduction in C26:0/C16:0 LPC level in wild type Cynomolgus monkey blood at 6.5 mg/kg, po qd measured after 14 days relative to control; assay type: functional, Macaca fascicularis; parameters: scale not given: the % may be the effect or the level left; conditions: time 14 day
[17] = Intrinsic clearance in rat hepatocytes assessed per million cells; assay type: ADME, cell-based, Hepatocyte; conditions: read-out: CLH
[18] = molecular target: T1, Very long chain fatty acid elongase 6 (Homo sapiens); assay: Inhibition of ELOVL6 in HEK293 cells assessed as reduction of C18:0 lipo phosphatidyl choline synthesis at 100 nM in presence of 13C-labeled acetate measured after 48 hrs by mass spectroscopic analysis; assay type: cell-based
[19] = molecular target: T2, Very long chain fatty acid elongase 1 (Homo sapiens); assay: Inhibition of ELOVL1 in HEK293 cells assessed as reduction of C26:0 lipo phosphatidyl choline synthesis at 100 nM in presence of 13C-labeled acetate measured after 48 hrs by mass spectroscopic analysis; assay type: cell-based
[20] = molecular target: T4, Very long chain fatty acid elongase 6 (Homo sapiens, UniProt Q9H5J4); assay: Inhibition of ELOVL6 in HEK293 cells by radiometric enzyme assay; assay type: cell-based
T4 sequence (Q9H5J4 whole entry): T1 sequence (whole entry)

[21] = molecular target: 3',5'-cyclic phosphodiesterase (Homo sapiens) (UniProt O76074+P27815+Q14432+Q13956+P18545+O00408+Q13946+P54750+O76083+P35913+Q08499+Q07343+O43924+P16499+Q13370+P51160+O95263+Q9Y233+Q01064+Q08493+Q14123+O60658+Q9NP56); assay: Inhibition of human PDE4 at 10 uM relative to control; assay type: protein assay
[22] = molecular target: Kappa-type opioid receptor (Homo sapiens) (UniProt P41145); assay: Inhibition of human kappa opioid receptor at 10 uM relative to control
[23] = Inhibition of ELOVL4 in HEK293 cells by radiometric enzyme assay; assay type: cell-based, Homo sapiens
[24] = Ocular toxicity in rat assessed as corneal opacities at 10 to 50 mg/kg/day, po qd measured after 8 weeks by macroscopic analysis; assay type: organism-based; conditions: in vivo, 1344 h, dose 10-50 mg/kg/day
[25] = Reduction in C26:0 LPC level in wild type mouse blood at 16 mg/kg, po qd and measured after 1 week relative to control; assay type: functional; parameters: scale not given: the % may be the effect or the level left; conditions: time 1 weeks
[26] = Permeability of compound across apical to basolateral side in MDCK-MDR1 cells; assay type: ADME, cell-based, Canis lupus familiaris; conditions: dog, read-out: permeability
[27] = Reduction in C26:0/C16:0 LPC level in wild type Sprague-Dawley rat blood at 50 mg/kg, po qd measured after 28 days relative to control; assay type: functional; parameters: scale not given: the % may be the effect or the level left; conditions: time 28 day
[28] = tested on: Mus musculus; assay: Reduction in C26:0/C16:0 LPC level in ABCD1 knock out mouse CNS at 4 to 32 mg/kg, po qd and measured after 1 month; assay type: functional, organism-based; conditions: dose 4-32 mg/kg, time 1.0 months
[29] = Reduction in C26:0/C16:0 LPC level in wild type Sprague-Dawley rat blood at 10 mg/kg, po qd measured after 28 days relative to control; assay type: functional; parameters: scale not given: the % may be the effect or the level left; conditions: time 28 day
[30] = Toxicity in Cynomolgus monkey assessed as convulsion at >50 mg/kg/day, po qd measured after 14 days; assay type: organism-based, Macaca fascicularis; conditions: in vivo, 336 h, time 14 day
[31] = tested on: HEK293; assay: Cytotoxicity against HEK293 cells assessed as reduction in cell viability at 100 nM measured after 48 hrs; assay type: cell-based; conditions: human, hek293, 48 h, 0.1 µM
[32] = Lipophilicity, logD of the compound at pH 7.4; assay type: physicochemical; conditions: buffer
[33] = Reduction in C26:0 LPC level in wild type mouse blood at 32 mg/kg, po qd and measured after 1 week relative to control; assay type: functional; parameters: scale not given: the % may be the effect or the level left; conditions: time 1 weeks
[34] = molecular target: T3, Very long chain fatty acid elongase 1; assay: Inhibition of ELOVL1 (unknown origin)

Sequence of Voltage-gated inwardly rectifying potassium channel KCNH2 (Q12809 whole entry): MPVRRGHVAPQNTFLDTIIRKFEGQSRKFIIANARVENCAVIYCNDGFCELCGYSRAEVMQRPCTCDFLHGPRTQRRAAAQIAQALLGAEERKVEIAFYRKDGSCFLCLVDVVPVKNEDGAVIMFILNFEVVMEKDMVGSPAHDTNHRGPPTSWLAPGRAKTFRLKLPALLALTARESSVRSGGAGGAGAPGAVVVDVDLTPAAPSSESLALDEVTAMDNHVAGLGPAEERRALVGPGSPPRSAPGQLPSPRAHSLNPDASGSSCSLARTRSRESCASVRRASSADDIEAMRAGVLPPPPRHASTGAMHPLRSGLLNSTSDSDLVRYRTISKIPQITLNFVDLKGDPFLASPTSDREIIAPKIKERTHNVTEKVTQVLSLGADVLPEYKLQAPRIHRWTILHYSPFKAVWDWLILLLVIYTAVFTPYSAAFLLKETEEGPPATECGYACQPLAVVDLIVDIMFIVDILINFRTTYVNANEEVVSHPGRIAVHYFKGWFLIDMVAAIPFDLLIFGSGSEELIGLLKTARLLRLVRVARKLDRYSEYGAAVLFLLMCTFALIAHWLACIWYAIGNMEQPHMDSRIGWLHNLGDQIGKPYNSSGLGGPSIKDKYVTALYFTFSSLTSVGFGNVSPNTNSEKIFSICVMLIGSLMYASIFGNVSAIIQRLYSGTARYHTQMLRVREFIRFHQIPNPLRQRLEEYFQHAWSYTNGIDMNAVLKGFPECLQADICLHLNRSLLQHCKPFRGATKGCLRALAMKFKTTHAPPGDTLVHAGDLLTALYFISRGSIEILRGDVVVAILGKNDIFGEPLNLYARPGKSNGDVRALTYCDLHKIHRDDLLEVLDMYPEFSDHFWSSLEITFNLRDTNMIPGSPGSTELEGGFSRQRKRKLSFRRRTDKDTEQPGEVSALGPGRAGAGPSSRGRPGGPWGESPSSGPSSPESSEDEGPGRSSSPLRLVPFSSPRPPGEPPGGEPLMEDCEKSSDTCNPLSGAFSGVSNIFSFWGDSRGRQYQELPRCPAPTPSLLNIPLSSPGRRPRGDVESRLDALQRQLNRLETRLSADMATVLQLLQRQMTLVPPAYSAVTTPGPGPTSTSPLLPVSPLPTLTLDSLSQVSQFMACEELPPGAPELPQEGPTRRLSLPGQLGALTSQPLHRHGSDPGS
Sequence of Kappa-type opioid receptor (Homo sapiens) (P41145 whole entry): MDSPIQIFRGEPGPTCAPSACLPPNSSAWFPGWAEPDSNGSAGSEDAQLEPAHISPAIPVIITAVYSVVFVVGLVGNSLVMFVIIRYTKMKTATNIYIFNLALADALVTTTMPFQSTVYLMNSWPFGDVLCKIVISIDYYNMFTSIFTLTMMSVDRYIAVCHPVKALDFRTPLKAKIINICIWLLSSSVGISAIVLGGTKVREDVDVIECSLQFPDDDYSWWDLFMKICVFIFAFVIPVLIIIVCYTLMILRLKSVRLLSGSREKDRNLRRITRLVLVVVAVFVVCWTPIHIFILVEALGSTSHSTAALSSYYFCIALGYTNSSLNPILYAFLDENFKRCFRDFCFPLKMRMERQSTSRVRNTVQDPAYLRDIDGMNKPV

SMILES: c1ccc([C@H]2CN(c3cc(O[C@H]4C[C@@H](n5ccnn5)C4)ncn3)CCO2)cc1
- IC50 [12]: 0.009 µM
- hepatocyte CLint [17]: 14 µL/min/1e6 cells
- logD [32]: 2.9

SMILES: Clc1ccn([C@H]2C[C@H](c3cc(O[C@H]4C[C@@H](n5cccn5)C4)ncn3)C2)n1
- IC50 [12]: 0.002 µM
- hepatocyte CLint [17]: 12 µL/min/1e6 cells
- logD [32]: 3.5

SMILES: c1ccc([C@H]2CN(c3cc(O[C@H]4C[C@@H](c5nnco5)C4)ncn3)CCO2)cc1
- IC50 [12]: 0.009 µM
- hepatocyte CLint [17]: 8 µL/min/1e6 cells
- logD [32]: 2.8

SMILES: Fc1ccc(CCOc2cc(N3CCCOCC3)ncn2)cc1
- IC50 [12]: 0.003 µM
- hepatocyte CLint [17]: 144 µL/min/1e6 cells
- logD [32]: 3.4

SMILES: Fc1ccn([C@H]2C[C@H](c3cc(O[C@H]4C[C@@H](n5cccn5)C4)ncn3)C2)n1
- IC50 [12]: 0.0003 µM
- hepatocyte CLint [17]: 8.4 µL/min/1e6 cells
- logD [32]: 3.1

SMILES: Fc1ccc(CCOc2cc(N3CCCCC3)ccn2)cc1
- IC50 [12]: 0.44 µM
- IC50 [34]: 0.86 µM

Further lines, with some results ahead:

- inhibition [1]: inactive
- clearance [3]: 1.2 L/h/kg
- efflux ratio [5]: 1
- IC50 [7]: > 50 µM
- inhibition [10]: Active
- inhibition [11]: Active
- IC50 [12]: 0.0004 µM
- half-life [13]: 3.1 h
- bioavailability [14]: 45%
- hepatocyte CLint [17]: 20 µL/min/1e6 cells
- inhibition [18]: inactive
- inhibition [19]: Active
- IC50 [20]: > 50 µM
- inhibition [21]: 74%
- inhibition [22]: 54%
- IC50 [23]: > 50 µM
- Papp A→B [26]: 174 nm/s
- logD [32]: 3.3
SMILES: c1ccc([C@H]2CN(c3cc(O[C@H]4C[C@@H](n5cccn5)C4)ncn3)CCO2)cc1
- Activity [2]: 45%
- Activity [4]: Active
- Activity [6]: 65%
- IC50 [8]: > 30 µM
- Activity [9]: 27%
- Activity [15]: 72%
- Activity [16]: 47%
- Activity [24]: Toxic
- Activity [25]: 70%
- Activity [27]: 79%
- Activity [28]: inactive
- Activity [29]: 78%
- Activity [30]: Toxic
- Activity [31]: Non-Toxic
- Activity [33]: 70%

- IC50 [34]: > 20 µM
SMILES: Fc1ccc(CCOc2cc(-c3cccnc3)ccn2)cc1

- IC50 [12]: 0.23 µM
- hepatocyte CLint [17]: 40 µL/min/1e6 cells
- logD [32]: 1.3
SMILES: Cc1ccnn1CCCOc1cc(N2C3COCC2C3)ncn1

- IC50 [12]: 0.21 µM
- hepatocyte CLint [17]: 12 µL/min/1e6 cells
- logD [32]: 2.6
SMILES: c1cnn([C@H]2C[C@@H](Oc3cc([C@H]4C[C@@H](n5cccn5)C4)ncn3)C2)c1

- IC50 [12]: 6.7 µM
- IC50 [34]: 21 µM
SMILES: Fc1ccc(CCOc2ccc(-c3cccnc3)cn2)cc1

- IC50 [12]: 0.012 µM
- hepatocyte CLint [17]: 137 µL/min/1e6 cells
- logD [32]: 3.3
SMILES: Fc1ccc(CCOc2cc(N3CCOCC3)ncn2)cc1

- IC50 [12]: 0.007 µM
- hepatocyte CLint [17]: 184 µL/min/1e6 cells
- logD [32]: 3.2
SMILES: Cc1ccnn1CCCOc1cc(N2CCCCC2)ncn1

- IC50 [12]: 0.08 µM
- hepatocyte CLint [17]: 139 µL/min/1e6 cells
- IC50 [34]: 0.22 µM
SMILES: Fc1ccc(CCOc2cc(N3CCCCC3)ncn2)cc1
